Measured values from patent publication US9526707B2, “Methods for treating or preventing neuroinflammation or autoimmune diseases” (priority 2007, dated 2016).
“Also recorded” adds a separate entry of the source. Counter-ions that a name gives are not always drawn.

Assays:
[1] = test system: Experimental Autoimmune Encephalomyelitis (EAE) in C57BL/6 mice; experiment: Experimental Autoimmune Encephalomyelitis (EAE) model, treatment started two days prior to MOG booster; assay type: in vivo, mouse; conditions: for effect on EAE clinical symptoms (in words): treated versus control animals, FIG. 1, 3, 4, 5
From the text: (§1) One method of showing the efficacy of the disclosed compounds for the treatment of various conditions associated with multiple sclerosis (MS) is its ability to inhibit effects of Experimental Autoimmune Encephalomyelitis (EAE) in laboratory animals. EAE is an animal model for MS, which entails inducing a T-cell-mediated autoimmune disease against myelin basic protein in certain susceptible mammalian species. The EAE model is an appropriate method for studying the inflammation of the brain and spinal cord associated with MS (see Bolton, C. Mult. Scler. 1995; 1(3); 143-9). […] The symptoms that are observed in animals vary from mild gait disturbances and tail atony to complete paralysis and death. These clinical manifestations are given a clinical score ranging from 0 to 5. In the present situation, the scores were based on the following criteria: clinical score 0, no signs; 1.0 limp tail; 2.0 limptail with loss of righting; 3.0 paralysis of single hind limb; 4.0 paralysis of both hind limbs; 5.0 death. Weight loss typically occurs. In animals that survive, spontaneous recovery occurs, accompanied by variable recovery of most motor function. Depending on the species, allergen, and methodology used, animals tested by the EAE model may experience a single (acute EAE) or several (chronic relapsing EAE) attacks.
Experimental autoimmune encephalomyelitis was induced in C57BL/6 mice using the following protocol. Female C57BL/6 mice (6-8 weeks old, N=24) purchased from Jackson Labs, were allowed to acclimate for one week prior to EAE induction. EAE was induced using myelin oligodendrocyte glycoprotein peptide 35-55 (MOG35-55, MEVGWYRSPFSRVVHL-YRNGK). The MOG35-55 injection with Freund's adjuvant was administered subcutaneously adjacent to the hind leg. At the same time, the animals received an injection of pertussis toxin (200 ng in 200 μL phosphate buffered saline (PBS), intraperitoneally), and a second pertussis toxin injection two days later. Mice were given a booster injection of MOG35-55 at day No. 7. Two or three days after the second MOG booster injection, some animals begin to show signs of EAE. The mice are monitored daily using the clinical scoring system described above.
In addition, Didox delayed the onset of the disease in the minority of animals in which it occurred in the Didox treatment group, 7.3 days versus 4.4 days for the control group. […] For example, at the plateau of the clinical condition on day 12 for both the Didox and saline (control) group, represented by the open squares ? the mean clinical score was only 0.45 for the Didox treated cohort compared to a score of 1.9 for the control group. […]

[2] = test system: Experimental Autoimmune Encephalomyelitis (EAE) in C57BL/6 mice; experiment: EAE model, treatment started at day 16 after MOG booster (established symptoms); assay type: in vivo, mouse; conditions: 250 mg/kg intraperitoneally, started 16 days after MOG35-55 booster
From the text: as §1, with “attacks. […]” for “attacks.”

[3] = test system: EAE mice; experiment: EAE model, treatment started when mice had reached clinical stage 2 or more (clinical score); assay type: in vivo, mouse; conditions: treatment begun at clinical stage 2 or more
[4] = test system: mouse cytokines in serum; experiment: Serum cytokine levels in EAE mice, BioPlex multiplexable bead assay; assay type: in vivo
Experimental: The effect of Didox on cytokine levels was tested. As before, two groups were assembled, one treated with Didox while the other group served as a control and only received saline injections. […] EAE was initiated in all animals depicted at the same time and in an identical manner. All animals were of the same experimental time point at the time of serum collection for cytokine analysis. The Didox treated group experienced a decrease of two points in the EAE clinical score. The analysis of cytokine levels was performed by utilizing a BioPlex® multiplexable bead assay method that simultaneously quantitates mouse cytokines in diverse matrices. In this example the assay was carried out on serum derived from mice of the two groups (Didox and saline treated) at day 12 post MOG induced EAE. Blood was obtained by cardiac aspiration from mice that had been euthanized by CO2. Serum was obtained from clotted blood after centrifugation and stored at […] until assayed. For analysis the serum was diluted and analyzed with the Bio-Plex® assay system. The system utilized beads that are internally labeled with two fluorescent dyes (one for identification of the bead and one for covalent attachment of ligands (or biomolecules). Once an antibody was conjugated to the bead a sample of serum was added and followed by a reporter antibody that is often biotinylated. Following incubation with biotinylated reporter antibody, strepavidin/phycoerythrin was added to make detection possible. The system can profile up to 23 mouse cytokines. Table B indicates the amount of cytokine present (pg/mL) in the serum.

[5] = test system: activated microglia isolated from rat brain; experiment: Nitrite production by LPS-activated microglia; assay type: cell-based
From the text: To further evaluate the beneficial effect of Didox on brain tissue, we analyzed the ability of Didox to attenuate the production of nitrite by activated microglia, which are major contributors to the inflammatory status of EAE mice. Microglia were isolated from rat brain and activated with lipopolysaccharide (LPS) in the presence or absence of increasing concentrations of Didox. […] This observation, together with the attenuation of the T-cell inflammatory response would both contribute to the biological activity of Didox to reduce the severity of EAE.

[6] = test system: activated T-cells; experiment: Secretion of inflammatory cytokines by activated T-Cells in vitro; assay type: cell-based
From the text: The purpose of this example was to determine whether Didox treatment of T-Cells in vitro produced similar data as was found in vivo using the EAE model.

[7] = test system: T-cells in splenocytes from C57BL/6 mice; experiment: T-cell proliferation of CD3/CD28 stimulated splenocytes (BrdU); assay type: cell-based, mouse; conditions: 48 hours with compound, b156: at 100 μM
Experimental: A series of in vitro experiments were conducted to ascertain the effect of Didox on immune function. A mixed splenocyte preparation was divided into two portions, one was stimulated with CD3 and CD28 to specifically activate T-cells while the other served as a control. The splenocytes were isolated from female C57BL/6 mice (6-8 weeks old) and the splenocytes were incubated for 24 hours with CD3/CD28 coated wells, after which Didox was added at varying concentrations. The cells were then incubated for an additional 48 hours. Each well was labeled with BrdU for the last 24 hours and the wells analyzed according to the manufacturer's instructions (Roche-Cell Proliferation Chemiluminescent assay kit). FIG. 7 depicts the results of these experiments. The solid black bars represent un-stimulated splenocytes while the white bars the effect of varying concentrations of Didox on the amount of T-Cells present.

[8] = clinical score 0 to 5, treated from day -2 before MOG booster
[9] = serum, treated versus saline treated EAE mice
[10] = 48 hours treatment of activated T-cells, even at 5 μM

NC(=O)NO [hydroxyurea, reference compound]
effect on EAE clinical symptoms (in words) [1]: did not show evidence of treating neurodegenerative diseases

NC(=NO)c1ccc(O)c(O)c1 (as salt: hydrochloride) [Example I, 3,4-dihydroxybenzamidoxime]
melting point: 193 °C (dec.)

O=C(NO)c1ccc(O)c(O)c1 [Didox, N,3,4-trihydroxybenzamide]
reduction in average clinical score [2]: more than 50% | Max. Score [1, 8]: 3 | Max. Score (mean +/− SEM) [1, 8]: 0.45 +/− 0.31 | percentage of animals that exhibited any clinical symptom of the disease ([1]; control 78%): 27% | mean clinical score ([1]; day 12, plateau of the clinical condition, control 1.9): 0.45 | onset of the disease ([1]; in the minority of animals in which it occurred, control 4.4 days): 7.3 days | Day of Disease Onset ([1]; treated from day -2 before MOG booster): 7.33 +/− 1.73 | effect on EAE clinical symptoms (in words) [1]: reduced the severity and delayed the onset of the clinical manifestation of the disease | decrease in the EAE clinical score [3]: two | IL-4 in serum ([4]; day 12 post MOG induced EAE, control 0 ± 0): 0 ± 0 pg/mL | IL-2 in serum ([4]; day 12 post MOG induced EAE, control 2 ± 2): 0.7 ± 0.2 pg/mL | IL-5 in serum ([4]; day 12 post MOG induced EAE, control 6 ± 5): 2 ± 1 pg/mL | GM-CSF in serum ([4]; day 12 post MOG induced EAE, control 7 ± 4): 0.4 ± 0.5 pg/mL | IFN-g in serum ([4]; day 12 post MOG induced EAE, control 10 ± 3): 3 ± 1 pg/mL | IL-10 in serum ([4]; day 12 post MOG induced EAE, control 16 ± 7): 3 ± 1 pg/mL | IL-17 in serum ([4]; day 12 post MOG induced EAE, control 83 ± 29): 2 ± 0.2 pg/mL | TNF-α in serum ([4]; day 12 post MOG induced EAE, control 219 ± 132): 61 ± 46 pg/mL | IL-12 in serum ([4]; day 12 post MOG induced EAE, control 559 ± 276): 36 ± 14 pg/mL | reduction for IL-12 [4, 9]: 15 fold | reduction for Il-10 [4, 9]: 5.0 fold | reduction for TNF levels [4, 9]: 3.5 fold | reduction in IL-17 [4, 9]: approximately 35 fold | nitrite production ([5]; 100 μM treatment): reached base line levels | nitrite production, dose dependence ([5]; increasing concentrations): dose dependent attenuation of nitrite production | secretion of IFNγ ([6]; 24 hours treatment): does not reduce the levels of these cytokines to background; also recorded: reduced to less than half the level secreted by the untreated activated T-cells | secretion of IL-17 ([6]; 24 hours treatment): does not reduce the levels of these cytokines to background | secretion of IFNγ [6, 10]: down to baseline levels | secretion of IL-17 [6, 10]: down to baseline levels | level of T-Cell proliferation [7]: reduces the level of T-cells to the amount present in un-stimulated cells; also recorded: reduced to that for un-stimulated cells
